Experimental data from US20220235006A1, “PYRIDINE DERIVATIVES AS TMEM16A MODULATORS FOR USE IN THE TREATMENT OF RESPIRATORY CONDITIONS” (TMEM16A LIMITED, priority 2019, published 2022).
Converted amounts (≈) assume the structure as drawn.

Legend:
[1] = Kinetic solubility determination (high throughput); type: physicochemical; conditions: kinetic from dmso stock, sterile water, 5% DMSO, room temperature
Protocol: Test compounds (10 μL; 20 mM DMSO solution) were added to sterile water (190 μL) in triplicate and shaken at 300 rpm at room temperature. After 90 min. the test compounds were filtered by centrifuge (5 min. at 3000 rpm) to obtain the aqueous filtrate. Acetonitrile (20 μL) was dispensed into clean 96-well UV/VIS analysis plate and aqueous filtrate (80 μL) added and the plate analysed for test compound concentration using a Molecular Devices SPECTRAmax® plus microplate reader at the following wavelengths: (280, 300, 320, 340, 360, 800 nm). […] The diluted filtrate (80 μL) was then added to acetonitrile (20 μL) and the plate analysed. as previously.

[2] = Log D (pH7.4 shake flask); type: physicochemical; conditions: pH 7.4; 1-octanol/phosphate buffer shake flask; read-out: mLogD (pH 7.4)
Protocol: Phosphate buffer (1 M) was diluted to 20 mM with deionised water and adjusted to pH 7.4 with phosphoric acid or sodium hydroxide. 1-octanol and phosphate buffer (20 mM) were saturated overnight by tumbling. The two phases were separated using a separation funnel. 5 μL of 5 mM compound cassette was added to 495 μL of octanol-saturated buffer and 495 μL buffer saturated octanol in a 96-well plate (top concentration 50 μM). Plate was shaken for 1 h and centrifuged at 25° C. for 5 min. 200 μL of each phase was transferred to a separate plate. The octanol layer was sampled first to avoid cross contamination. 5 μL of the solutions were transferred to 495 μL of quench solution* (max concentration 0.5 μM). In addition, 40 μL of buffer solution was added to 360 μL of quench solvent (max concentration 5 μM). Samples were analysed by LC-MS/MS. Benchmarking against a calibration curve for each compound and with reference to the control compounds sulpride, diclofenac, chlorpromazine and tamoxifen. *Quench solution was a 1:3:1 mixture (v/v/v) of Acetonitrile containing 0.1% formic acid and imipramine/labetalol, 200 nM:Acetonitrile:Water.

[3] = target: T1, human TMEM16A (TMEM16Aabc variant) (Homo sapiens, UniProt Q5XXA6, DEL476-501); experiment: Automated whole-cell patch clamp (Qpatch) TMEM16A potentiator assay in recombinant FRT cells; type: cell-based; conditions: for activation at 3.33 µM: percentage increase of baseline TMEM16A current, minimum n = 2, read-out: % Potentiation @ 3.33 uM Avg; for EC50: minimum n = 2
T1 sequence (Q5XXA6 with tags, fused parts or gaps isoform Q5XXA6-5 DEL539-564): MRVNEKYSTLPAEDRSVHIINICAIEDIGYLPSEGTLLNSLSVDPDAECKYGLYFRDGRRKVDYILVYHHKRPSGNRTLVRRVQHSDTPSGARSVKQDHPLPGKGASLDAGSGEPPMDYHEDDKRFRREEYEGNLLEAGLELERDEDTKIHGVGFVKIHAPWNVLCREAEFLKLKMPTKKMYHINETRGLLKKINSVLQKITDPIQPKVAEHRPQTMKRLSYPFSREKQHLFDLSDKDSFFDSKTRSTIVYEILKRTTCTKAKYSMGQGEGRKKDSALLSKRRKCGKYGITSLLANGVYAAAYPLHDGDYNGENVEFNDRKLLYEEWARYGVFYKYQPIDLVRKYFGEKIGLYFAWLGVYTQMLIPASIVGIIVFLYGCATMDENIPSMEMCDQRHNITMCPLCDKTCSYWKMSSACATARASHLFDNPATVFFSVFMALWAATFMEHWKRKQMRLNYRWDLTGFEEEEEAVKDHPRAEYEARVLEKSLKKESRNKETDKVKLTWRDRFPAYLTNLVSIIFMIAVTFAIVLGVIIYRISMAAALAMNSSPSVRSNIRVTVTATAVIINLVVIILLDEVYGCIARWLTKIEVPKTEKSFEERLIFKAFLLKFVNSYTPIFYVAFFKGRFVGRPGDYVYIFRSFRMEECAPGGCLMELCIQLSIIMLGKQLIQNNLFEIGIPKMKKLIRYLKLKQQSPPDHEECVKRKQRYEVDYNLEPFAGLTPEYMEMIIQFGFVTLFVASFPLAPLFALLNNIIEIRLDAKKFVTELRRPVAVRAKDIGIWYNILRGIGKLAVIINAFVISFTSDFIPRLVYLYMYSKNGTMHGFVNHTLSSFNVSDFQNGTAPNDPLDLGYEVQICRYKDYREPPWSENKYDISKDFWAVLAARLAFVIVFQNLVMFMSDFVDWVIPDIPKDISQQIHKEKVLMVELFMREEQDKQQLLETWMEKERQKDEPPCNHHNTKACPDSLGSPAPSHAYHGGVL
Protocol: Automated Whole-Cell Patch Clamp Assay to Detect TMEM16A Activity in Recombinant Cells
Fisher rat thyroid (FRT) cells stably expressing human TMEM16A (TMEM16Aabc variant; Dr Luis Galietta, Insituto Giannina, Italy) were cultured in T-75 flasks in Hams F-12 media with Coon's modification (Sigma) supplemented with 10% (v/v) foetal bovine serum, penicillin-streptomycin (10,000 U/mL/10000 μg/mL), G-418 (750 μg/mL), L-glutamine (2 mM) and sodium bicarbonate solution (7.5% v/v). At ˜90% confluence cells were harvested for experiments by detachment with a 2:1 (v/v) mixture of Detachin (BMS Biotechnology) and 0.25% (w/v) trypsin-EDTA.
FRT-TMEM16A cells were whole-cell patch clamped using an automated planar patch clamp system (Qpatch, Sophion). Briefly, once high resistance (GOhm) seals were established between the cells and the planar recording array the patch was ruptured using suction pulses to establish the whole-cell recording configuration of the patch clamp technique. The assay employed the following solutions (all reagents Sigma): Intracellular solution (mM): N-methyl-D-glucamine 130, CaCl2 18.2, MgCl2 1, HEPES 10, EGTA 10, BAPTA 20, Mg-ATP 2, pH 7.25, 325 mOsm with sucrose.
Extracellular solution (mM): N-methyl-D-glucamine 130, CaCl2 2, MgCl2 1, HEPES 10, pH 7.3, 320 mOsm with sucrose.
The intracellular solution buffers intracellular calcium at levels required to give ˜20% activation of the maximal TMEM16A mediated current (E020 for calcium ions). Cells were voltage clamped at a holding potential of −70mV and a combined voltage step (to +70 mV)/ramp (−90 my to +90 mV) was applied at 0.05 Hz. After a period of current stabilisation test compounds, solubilised in 100% (v/v) DMSO and subsequently diluted into extracellular solution, were applied to generate a cumulative concentration response curve. Each concentration of test compound was incubated for 5 minutes before addition of the next concentration. After the final concentration was tested a supramaximal concentration of either a known active positive modulator or the TMEM16A inhibitor, CaCCinhA01 (Del La Fuente et al, 2008) was added to define the upper and lower limits of the assay.
Compound activity was quantified by measuring the increase in current upon compound addition and expressing this as a percentage increase of baseline TMEM16A current level.
Peak TMEM16A current at +70 mV was plotted as a function of time over the assay period. Baseline current (IBL) was measured after a period of stabilisation. The increase in current for each compound addition was determined by taking the peak current during the incubation period and subtracting the current from the previous recording period and then expressing this as a percentage of the baseline current (% potentiation). For test compound concentration 1 in FIG. 1 this is:
For each additional concentration tested the increase in current was determined by subtracting the current from the previous incubation period and normalising the baseline value—for test concentration 2 in FIG. 1 this is:
The values for each test concentration were plotted as a cumulative function of concentration eg. for test concentration two this would be the sum of the peak changes measured during concentration one plus concentration two.

solubility kinetic at 90 min [1] [µg/mL]	logD [2]	activation at 3.33 µM [3] [%]	EC50 [3] [nM]	SMILES
72 (≈ 156 µM)	3.5	378	88	N#CC1(NC(=O)c2cc(NC(=O)Cc3cc(O)c(C4(C(F)(F)F)CC4)cc3F)ccn2)CC1 [Example 9, N-(1-Cyanocyclopropyl)-4-[[2-[2-fluoro-5-hydroxy-4-[1-(trifluoromethyl)cyclopropyl]phenyl]acetyl]amino]pyridine-2-carboxamide]
	3.9	353	132	CC(C)(C#N)NC(=O)c1cc(NC(=O)Cc2cc(O)c(C(C)(C)C)cc2F)c(F)cn1 [Example 3, 4-[[2-(4-tert-Butyl-2-fluoro-5-hydroxy-phenyl)acetyl]amino]-N-(1-cyano-1-methyl-ethyl)-5-fluoro-pyridine-2-carboxamide]
	> 4	310	52	CC(C)(C#N)NC(=O)c1cc(NC(=O)Cc2cc(O)c(C(C)(C)C)cc2Cl)ccn1 [Example 10, 4-[[2-(4-tert-Butyl-2-chloro-5-hydroxy-phenyl)acetyl]amino]-N-(1-cyano-1-methyl-ethyl)pyridine-2-carboxamide]
	> 4.2	248	38	CC1(NC(=O)c2cc(NC(=O)Cc3cc(O)c(C(C)(C)C)cc3F)ccn2)CC1 [Example 1, 4-[[2-(4-tert-Butyl-2-fluoro-5-hydroxy-phenyl)acetyl]amino]-N-(1-methylcyclopropyl)pyridine-2-carboxamide]
	3.7	356	69	CC(C)(C)NC(=O)c1cc(NC(=O)Cc2cc(O)c(C3(C#N)CC3)cc2F)ccn1 [Example 2.4, N-tert-Butyl-4-[[2-[4-(1-cyanocyclopropyl)-2-fluoro-5-hydroxy-phenyl]acetyl]amino]pyridine-2-carboxamide]
	> 4	202	25	CC(C)(C)c1cc(F)c(CC(=O)Nc2ccnc(C(=O)NC3(C(F)(F)F)CC3)c2)cc1O [Example 1.7]
	4.2	434	30	O=C(Cc1cc(O)c(C2(C(F)(F)F)CCO2)cc1F)Nc1ccnc(C(=O)NC2(C(F)(F)F)CC2)c1 (centres unmarked) [Example 2.10, 4-[[2-[2-Fluoro-5-hydroxy-4-[2-(trifluoromethyl)oxetan-2-yl]phenyl]acetyl]amino]-N-[1-(trifluoromethyl)cyclopropyl]pyridine-2-carboxamide]
	> 4.1	200	37	CC(C)(C#N)NC(=O)c1cc(NC(=O)Cc2cc(O)c(C(C)(C)C)cc2F)ccn1 [Example 1.4]
99 (≈ 206 µM)		122	27	CC(C)(C#N)NC(=O)c1cc(NC(=O)Cc2cc(O)c(C3(C(F)(F)F)CCO3)cc2F)ccn1 (centres unmarked) [Example 2.14, N-(1-Cyano-1-methyl-ethyl)-4-[[2-[2-fluoro-5-hydroxy-4-[2-(trifluoromethyl)oxetan-2-yl]phenyl]acetyl]amino]pyridine-2-carboxamide]
		350	466	CC(C)(C#N)NC(=O)c1cc(NC(=O)Cc2cc(O)c(C(C)(C)O)cc2F)ccn1 [Example 2.1, N-(1-Cyano-1-methyl-ethyl)-4-[[2-[2-fluoro-5-hydroxy-4-(1-hydroxy-1-methyl-ethyl)phenyl]acetyl]amino]pyridine-2-carboxamide]
		342	214	CC(C)(CO)c1cc(F)c(CC(=O)Nc2ccnc(C(=O)NC3(CO)CCC3)c2)cc1O [Example 12.4, 4-[[2-[2-Fluoro-5-hydroxy-4-(2-hydroxy-1,1-dimethyl-ethyl)phenyl]acetyl]amino]-N-[1-(hydroxymethyl)cyclobutyl]pyridine-2-carboxamide]
		140	407	CC(CO)c1cc(F)c(CC(=O)Nc2ccnc(C(=O)NC3(C)CCOCC3)c2)cc1O (centres unmarked) [Example 16.3, 4-[[2-[2-Fluoro-5-hydroxy-4-(2-hydroxy-1-methyl-ethyl)phenyl]acetyl]amino]-N-(4-methyltetrahydropyran-4-yl)pyridine-2-carboxamide]
		227	76	O=C(Cc1cc(O)c(C2(CO)CC2)cc1F)Nc1ccnc(C(=O)NC2(C(F)(F)F)CC2)c1 [Example 2.16, 4-[[2-[2-Fluoro-5-hydroxy-4-[1-(hydroxymethyl)cyclopropyl]phenyl]acetyl]amino]-N-[1-(trifluoromethyl)cyclopropyl]pyridine-2-carboxamide]
		74.5	19	C#CC(C)(C)NC(=O)c1cc(NC(=O)Cc2cc(O)c(C(C)(C)CO)cc2F)ccn1 [Example 16, N-(1,1-Dimethylprop-2-ynyl)-4-[[2-[2-fluoro-5-hydroxy-4-(2-hydroxy-1,1-dimethyl-ethyl)phenyl]acetyl]amino]pyridine-2-carboxamide]
